The source of these data is patent US10945983B2, “Oleocanthal isolation and cancer treatment” (Board of Supervisors for the University of Louisiana System, priority 2016, dated 2021).

For orientation: IC50 means the concentration needed to halve the response being measured.

Read-outs that look alike come from different tables or passages of the source.

For data set [1], the system named is MDA-MB-231/GFP human breast cancer cells. The data set is described as follows: Orthotopic TNBC xenograft model in athymic mice. It is filed as in vivo, athymic nude mice. To be noted: intraperitoneal 5 mg/kg, 3× per week; previous experiments of the inventors. How it is done: MDA-MB-231/GFP human breast cancer cells were cultured and resuspended in serum-free DMEM medium (20 μl). After anesthesia, cell suspensions (1×10^6 cells/20 μl) were inoculated subcutaneously into the second mammary gland fat pad just beneath the nipple of each athymic nude mouse to generate orthotopic breast tumors. […] FIG. 20 is a line chart showing tumor size was evaluated periodically during treatment at indicated days postinoculation. Tumor volume (V) was calculated by V=L/2×W^2, where L was the length and W was the width of tumors. […]
Turning to FIGS. 20-23, in the current disclosure, as a future dietary candidate OC nano-emulsion oral in vivo antitumor efficacy was assessed using the same mouse model using MDA-MB-231/GFP human BC cells. […] The mice were monitored by measuring body weight, and observation of their physical behavior throughout the study. […]
MDA-MB-231/GFP human breast cancer cells were harvested, pelleted by centrifugation at 850×g for 5 minutes, and re-suspended in sterile serum-free DMEM medium (20 μL). […] The mice were monitored by measuring tumor volume, body weight, and clinical observation. Tumor volume (V) was calculated by V=L/2×W^2, where L was the length and W was the width of tumors. […]

A further data set concerns BT-474 human BC cells. The note with it: for BT-474 tumor weight inhibition vs vehicle: 3×/week, intraperitoneal, 60 days; for BT-474 tumor growth inhibition: 5×/week. The protocol: 5×10^6 cells/20 μL BT-474 human BC cells were sc inoculated into second mammary gland fat pad of athymic nude (Foxn1^nu/Foxn^1). […] Top panels show photographs of representative intact animal for each group. Bottom panels show photographs of excised primary tumor at experiment end.
Turning to FIGS. 28A-32, the HER2+ BC represents >15% of total BC cases with aggressive metastatic and highly resistant profile.

Another data set relates to HER2+-ER+BT-474 BC cells. The data set is described as follows: BT-474 recurrence after neoadjuvant lapatinib regimen. The class given is in vivo, athymic nude mice. To be noted: OC 10 mg/kg, ip, 3×/week, additional 54 days after lapatinib 50 mg/kg for 60 days. How it is done: FIG. 36A is a photograph of representative animals of vehicle control group and two photographs showing circled tumor developed over the additional 54 days period. FIG. 36B is two photographs of representative animals that completed 60 days oral lapatinib 50 mg/kg group and two photographs of developed circled tumors after additional 54 days. FIG. 36C is two photographs of representative animals of 10 mg OC 1p, 3×/week group, and two photographs showing no tumor developed over the additional 54 days regimen.
(§1) The correlation between c-Met/HGF pathway and tumor resistance is documented. […] This was consistent with the OC c-Met inhibitory activity and previously shown growth and recurrence effects.

The next data set concerns TNBC MDA-MB-231 BC cells. The data set is described as follows: TNBC recurrence after neoadjuvant paclitaxel. It is filed as in vivo. To be noted: 10 mg/kg oral daily.
Description: as §1

The next data set deals with mTOR (Homo sapiens, UniProt P42345). To be noted: read-out: IC50 mTOR enzymatic activity; cited from earlier work.
For another data set, the system named is BT-474 tumor recurrence. Description: HER2+/ER+ BT-474 recurrence after primary tumor surgical excision. To be noted: for recurrence tumor weight inhibition: additional 54 days after excision.

Description for BT-474 tumor recurrence: Female athymic nude mice used in previous experiment were anesthetized prior to the surgical excision procedure with ip ketamine/xylazine combination (100 mg/kg/15 mg/kg). 15-20 min after administering the anesthetic animal reflexes tested by gently tapping the hind legs with sterile syringe needle and finally their tumors were surgically excised and each wound was closed by one or two stitches. Ketoprofen, 1 mg/kg was used 12 hours before and 12 h after surgery for effective analgesia. Ophthalmic lubricant was used during the surgery to prevent corneal drying. Bupivicaine (0.25%, 1-2 drops), twice daily, was used topically at the excision wound site, local infiltration along surgery site during closure with a maximum dose of 2 mg/kg.

Regarding `C/C=C(/C=O)[C@@H](CC=O)CC(=O)OCCc1ccc(O)cc1` [OC, (-)-Oleocanthal], the tumor growth inhibition in data set [1] was found to be 65%. Further, the “BT-474 tumor weight inhibition vs vehicle” value in the data set with BT-474 human BC cells (5 mg/kg) was determined as 88.2%; in the data set on BT-474 human BC cells (10 mg/kg), 93.2%. The “tumor recurrence after lapatinib regimen” value in the data set on HER2+-ER+BT-474 BC cells is “inhibited the HER2+-ER+BT-474 BC cells recurrence”. Besides, in the data set with TNBC MDA-MB-231 BC cells, the “recurrence and chemoresistance after neoadjuvant paclitaxel” value is “effectively inhibited in vivo recurrence and reversed chemoresistance”. Moreover, at mTOR, the IC50 was 0.708 µM. In the data set with BT-474 tumor recurrence (10 mg/kg, ip, 3×/week), the “recurrence tumor weight inhibition” value was determined as 86.2%.

Take `CS(=O)(=O)CCNCc1ccc(-c2ccc3ncnc(Nc4ccc(OCc5cccc(F)c5)c(Cl)c4)c3c2)o1` [lapatinib, reference compound]: the “BT-474 tumor growth inhibition” value was determined as 85.9% in the data set on BT-474 human BC cells (12.5 mg oral dose) and 89.9% in the data set on BT-474 human BC cells (50 mg oral dose). In addition, in the data set on BT-474 tumor recurrence (50 mg/kg, 5×/week oral), the “recurrence tumor weight inhibition” value is recorded as 81.4%. Besides, the body weight result with BT-474 tumor recurrence (lapatinib 50 mg/kg, additional 54 days) is “significant weight decrease”.
